# In ChEMBL document CHEMBL3045273, “Synthesis, characterization, and pharmacological evaluation of 1-[2-(6-nitro-4-oxo-2-phenyl-4H-quinazolin-3-yl)-ethyl]-3-phenyl ureas” (2013):
# How the values were obtained:
# Bacillus subtilis [1] = assay: Antibacterial activity against Bacillus subtilis ATCC 11774 assessed as growth inhibition after 24 hr by serial broth dilution method; type: functional; settings: ATCC 11774, 24 h
# Escherichia coli [2] = assay: Antibacterial activity against Escherichia coli ATCC 25922 assessed as growth inhibition after 24 hr by serial broth dilution method; type: functional; settings: ATCC 25922, 24 h
# Staphylococcus aureus [3] = assay: Antibacterial activity against Staphylococcus aureus ATCC 25923 assessed as growth inhibition at 300 ug/ml after 24 hr by Kirby-Bauer disk diffusion method; type: functional; settings: ATCC 25923, 24 h, read-out: DIZ
# Candida albicans [4] = assay: Antifungal activity against Candida albicans ATCC 66027 assessed as initial concentration required for appearance of zone of inhibition after 24 hr; type: functional
# Bacillus subtilis [5] = assay: Antibacterial activity against Bacillus subtilis ATCC 11774 assessed as growth inhibition at 100 ug/ml after 24 hr by Kirby-Bauer disk diffusion method; type: functional; settings: ATCC 11774, 24 h, read-out: DIZ
# Staphylococcus aureus [6] = assay: Antibacterial activity against Staphylococcus aureus ATCC 25923 assessed as growth inhibition after 24 hr by serial broth dilution method; type: functional; settings: ATCC 25923, 24 h
# Escherichia coli [7] = assay: microbe, parasite or virus in culture; settings: ATCC 25922, 24 h, read-out: DIZ
# Staphylococcus aureus [8] = assay: Antibacterial activity against Staphylococcus aureus ATCC 25923 assessed as initial concentration required for appearance of zone of inhibition after 24 hr; type: functional
# Escherichia coli [9] = assay: Antibacterial activity against Escherichia coli ATCC 25922 assessed as initial concentration required for appearance of zone of inhibition after 24 hr; type: functional
# Pseudomonas aeruginosa [10] = assay: Antibacterial activity against Pseudomonas aeruginosa ATCC 27853 assessed as growth inhibition at 300 ug/ml after 24 hr by Kirby-Bauer disk diffusion method; type: functional; settings: ATCC 27853, 24 h, read-out: DIZ
# Pseudomonas aeruginosa [11] = assay: Antibacterial activity against Pseudomonas aeruginosa ATCC 27853 assessed as growth inhibition after 24 hr by serial broth dilution method; type: functional; settings: ATCC 27853, 24 h
# Candida albicans [12] = assay: Antifungal activity against Candida albicans ATCC 66027 assessed as growth inhibition at 300 ug/ml after 24 hr by Kirby-Bauer disk diffusion method; type: functional; settings: ATCC 66027, 24 h, read-out: DIZ
# Candida albicans [13] = assay: Antifungal activity against Candida albicans ATCC 66027 assessed as growth inhibition at 100 ug/ml after 24 hr by Kirby-Bauer disk diffusion method; type: functional; settings: ATCC 66027, 24 h, read-out: DIZ
# Bacillus subtilis [14] = assay: Antibacterial activity against Bacillus subtilis ATCC 11774 assessed as initial concentration required for appearance of zone of inhibition after 24 hr; type: functional
# Bacillus subtilis [15] = assay: Antibacterial activity against Bacillus subtilis ATCC 11774 assessed as growth inhibition at 300 ug/ml after 24 hr by Kirby-Bauer disk diffusion method; type: functional; settings: ATCC 11774, 24 h, read-out: DIZ
# Escherichia coli [16] = assay: microbe, parasite or virus in culture; settings: ATCC 25922, 24 h, read-out: DIZ; remark: listed apart in the source
# Candida albicans [17] = assay: Antifungal activity against Candida albicans ATCC 66027 assessed as growth inhibition after 24 hr by serial broth dilution method; type: functional; settings: ATCC 66027, 24 h
# Pseudomonas aeruginosa [18] = assay: Antibacterial activity against Pseudomonas aeruginosa ATCC 27853 assessed as initial concentration required for appearance of zone of inhibition after 24 hr; type: functional
# Pseudomonas aeruginosa [19] = assay: Antibacterial activity against Pseudomonas aeruginosa ATCC 27853 assessed as growth inhibition at 100 ug/ml after 24 hr by Kirby-Bauer disk diffusion method; type: functional; settings: ATCC 27853, 24 h, read-out: DIZ
# Staphylococcus aureus [20] = assay: Antibacterial activity against Staphylococcus aureus ATCC 25923 assessed as growth inhibition at 100 ug/ml after 24 hr by Kirby-Bauer disk diffusion method; type: functional; settings: ATCC 25923, 24 h, read-out: DIZ
# Escherichia coli [21] = assay: Antibacterial activity against Escherichia coli ATCC 25922 assessed as growth inhibition at 40 ug/ml after 24 hr by Kirby-Bauer disk diffusion method; type: functional; settings: ATCC 25922, 24 h, read-out: DIZ
compound,measurement,setting,value
O=C(NCCn1c(-c2ccccc2)nc2ccc([N+](=O)[O-])cc2c1=O)Nc1ccccc1,MIC,Bacillus subtilis [1],100 µg/mL
same,MIC,Escherichia coli [2],70 µg/mL
same,zone of inhibition at 300 µg/mL,Staphylococcus aureus [3],14 mm
same,Activity,Candida albicans [4],20 µg/mL
same,zone of inhibition at 100 µg/mL,Bacillus subtilis [5],11 mm
same,MIC,Staphylococcus aureus [6],100 µg/mL
same,zone of inhibition at 100 µg/mL,Escherichia coli [7],11 mm
same,Activity,Staphylococcus aureus [8],200 µg/mL
same,Activity,Escherichia coli [9],100 µg/mL
same,zone of inhibition at 300 µg/mL,Pseudomonas aeruginosa [10],14 mm
same,MIC,Pseudomonas aeruginosa [11],40 µg/mL
same,zone of inhibition at 300 µg/mL,Candida albicans [12],20 mm
same,zone of inhibition at 100 µg/mL,Candida albicans [13],17 mm
same,Activity,Bacillus subtilis [14],100 µg/mL
same,zone of inhibition at 300 µg/mL,Bacillus subtilis [15],15 mm
same,zone of inhibition at 300 µg/mL,Escherichia coli [16],16 mm
same,MIC,Candida albicans [17],20 µg/mL
same,Activity,Pseudomonas aeruginosa [18],200 µg/mL
O=C(NCCn1c(-c2ccccc2)nc2ccc([N+](=O)[O-])cc2c1=O)NC1CCCCC1,MIC,Bacillus subtilis [1],100 µg/mL
same,MIC,Escherichia coli [2],70 µg/mL
same,zone of inhibition at 300 µg/mL,Staphylococcus aureus [3],12 mm
same,zone of inhibition at 100 µg/mL,Pseudomonas aeruginosa [19],12 mm
same,Activity,Candida albicans [4],20 µg/mL
same,MIC,Staphylococcus aureus [6],200 µg/mL
same,zone of inhibition at 100 µg/mL,Escherichia coli [7],13 mm
same,Activity,Staphylococcus aureus [8],200 µg/mL
same,Activity,Escherichia coli [9],70 µg/mL
same,zone of inhibition at 300 µg/mL,Pseudomonas aeruginosa [10],17 mm
same,MIC,Pseudomonas aeruginosa [11],70 µg/mL
same,zone of inhibition at 300 µg/mL,Candida albicans [12],21 mm
same,zone of inhibition at 100 µg/mL,Candida albicans [13],13 mm
same,Activity,Bacillus subtilis [14],200 µg/mL
same,zone of inhibition at 300 µg/mL,Bacillus subtilis [15],13 mm
same,zone of inhibition at 300 µg/mL,Escherichia coli [16],18 mm
same,MIC,Candida albicans [17],20 µg/mL
same,Activity,Pseudomonas aeruginosa [18],70 µg/mL
O=C(NCCn1c(-c2ccccc2)nc2ccc([N+](=O)[O-])cc2c1=O)Nc1ccc(Cl)cc1,MIC,Bacillus subtilis [1],70 µg/mL
same,MIC,Escherichia coli [2],40 µg/mL
same,zone of inhibition at 300 µg/mL,Staphylococcus aureus [3],12 mm
same,zone of inhibition at 100 µg/mL,Pseudomonas aeruginosa [19],11 mm
same,Activity,Candida albicans [4],40 µg/mL
same,zone of inhibition at 100 µg/mL,Bacillus subtilis [5],12 mm
same,MIC,Staphylococcus aureus [6],200 µg/mL
same,zone of inhibition at 100 µg/mL,Escherichia coli [7],12 mm
same,Activity,Staphylococcus aureus [8],200 µg/mL
same,Activity,Escherichia coli [9],70 µg/mL
same,zone of inhibition at 300 µg/mL,Pseudomonas aeruginosa [10],16 mm
same,MIC,Pseudomonas aeruginosa [11],40 µg/mL
same,zone of inhibition at 300 µg/mL,Candida albicans [12],21 mm
same,zone of inhibition at 100 µg/mL,Candida albicans [13],15 mm
same,Activity,Bacillus subtilis [14],70 µg/mL
same,zone of inhibition at 300 µg/mL,Bacillus subtilis [15],16 mm
same,zone of inhibition at 300 µg/mL,Escherichia coli [16],14 mm
same,MIC,Candida albicans [17],40 µg/mL
same,Activity,Pseudomonas aeruginosa [18],100 µg/mL
O=C(NCCn1c(-c2ccccc2)nc2ccc([N+](=O)[O-])cc2c1=O)Nc1ccc(C(F)(F)F)cc1,MIC,Bacillus subtilis [1],70 µg/mL
same,MIC,Escherichia coli [2],70 µg/mL
same,zone of inhibition at 300 µg/mL,Staphylococcus aureus [3],13 mm
same,zone of inhibition at 100 µg/mL,Pseudomonas aeruginosa [19],12 mm
same,zone of inhibition at 100 µg/mL,Staphylococcus aureus [20],11 mm
same,Activity,Candida albicans [4],40 µg/mL
same,zone of inhibition at 100 µg/mL,Bacillus subtilis [5],12 mm
same,MIC,Staphylococcus aureus [6],70 µg/mL
same,zone of inhibition at 100 µg/mL,Escherichia coli [7],11 mm
same,Activity,Staphylococcus aureus [8],100 µg/mL
same,Activity,Escherichia coli [9],100 µg/mL
same,zone of inhibition at 300 µg/mL,Pseudomonas aeruginosa [10],18 mm
same,MIC,Pseudomonas aeruginosa [11],40 µg/mL
same,zone of inhibition at 300 µg/mL,Candida albicans [12],20 mm
same,zone of inhibition at 100 µg/mL,Candida albicans [13],15 mm
same,Activity,Bacillus subtilis [14],70 µg/mL
same,zone of inhibition at 300 µg/mL,Bacillus subtilis [15],14 mm
same,zone of inhibition at 300 µg/mL,Escherichia coli [16],15 mm
same,MIC,Candida albicans [17],40 µg/mL
same,Activity,Pseudomonas aeruginosa [18],70 µg/mL
O=C(NCCn1c(-c2ccccc2)nc2ccc([N+](=O)[O-])cc2c1=O)Nc1cc(C(F)(F)F)cc(C(F)(F)F)c1,MIC,Bacillus subtilis [1],40 µg/mL
same,MIC,Escherichia coli [2],100 µg/mL
same,zone of inhibition at 300 µg/mL,Staphylococcus aureus [3],12 mm
same,zone of inhibition at 100 µg/mL,Pseudomonas aeruginosa [19],14 mm
same,Activity,Candida albicans [4],20 µg/mL
same,zone of inhibition at 100 µg/mL,Bacillus subtilis [5],14 mm
same,MIC,Staphylococcus aureus [6],200 µg/mL
same,zone of inhibition at 100 µg/mL,Escherichia coli [7],11 mm
same,Activity,Staphylococcus aureus [8],200 µg/mL
same,Activity,Escherichia coli [9],100 µg/mL
same,zone of inhibition at 300 µg/mL,Pseudomonas aeruginosa [10],19 mm
same,MIC,Pseudomonas aeruginosa [11],40 µg/mL
same,zone of inhibition at 300 µg/mL,Candida albicans [12],24 mm
same,zone of inhibition at 100 µg/mL,Candida albicans [13],17 mm
same,Activity,Bacillus subtilis [14],70 µg/mL
same,zone of inhibition at 300 µg/mL,Bacillus subtilis [15],19 mm
same,zone of inhibition at 300 µg/mL,Escherichia coli [16],14 mm
same,MIC,Candida albicans [17],20 µg/mL
same,Activity,Pseudomonas aeruginosa [18],40 µg/mL
CSc1ccc(NC(=O)NCCn2c(-c3ccccc3)nc3ccc([N+](=O)[O-])cc3c2=O)cc1,MIC,Bacillus subtilis [1],70 µg/mL
same,zone of inhibition at 40 µg/mL,Escherichia coli [21],11 mm
same,MIC,Escherichia coli [2],40 µg/mL
same,zone of inhibition at 300 µg/mL,Staphylococcus aureus [3],12 mm
same,zone of inhibition at 100 µg/mL,Pseudomonas aeruginosa [19],12 mm
same,Activity,Candida albicans [4],20 µg/mL
same,zone of inhibition at 100 µg/mL,Bacillus subtilis [5],12 mm
same,MIC,Staphylococcus aureus [6],200 µg/mL
same,zone of inhibition at 100 µg/mL,Escherichia coli [7],14 mm
same,Activity,Staphylococcus aureus [8],200 µg/mL
same,Activity,Escherichia coli [9],40 µg/mL
same,zone of inhibition at 300 µg/mL,Pseudomonas aeruginosa [10],19 mm
same,MIC,Pseudomonas aeruginosa [11],70 µg/mL
same,zone of inhibition at 300 µg/mL,Candida albicans [12],20 mm
same,zone of inhibition at 100 µg/mL,Candida albicans [13],15 mm
same,Activity,Bacillus subtilis [14],70 µg/mL
same,zone of inhibition at 300 µg/mL,Bacillus subtilis [15],16 mm
same,zone of inhibition at 300 µg/mL,Escherichia coli [16],18 mm
same,MIC,Candida albicans [17],20 µg/mL
same,Activity,Pseudomonas aeruginosa [18],70 µg/mL
O=C(NCCn1c(-c2ccccc2)nc2ccc([N+](=O)[O-])cc2c1=O)Nc1cc(C(F)(F)F)ccc1Cl,MIC,Bacillus subtilis [1],100 µg/mL
same,MIC,Escherichia coli [2],70 µg/mL
same,zone of inhibition at 300 µg/mL,Staphylococcus aureus [3],12 mm
same,zone of inhibition at 100 µg/mL,Pseudomonas aeruginosa [19],12 mm
same,Activity,Candida albicans [4],40 µg/mL
same,zone of inhibition at 100 µg/mL,Bacillus subtilis [5],11 mm
same,MIC,Staphylococcus aureus [6],200 µg/mL
same,zone of inhibition at 100 µg/mL,Escherichia coli [7],11 mm
same,Activity,Staphylococcus aureus [8],300 µg/mL
same,Activity,Escherichia coli [9],70 µg/mL
same,zone of inhibition at 300 µg/mL,Pseudomonas aeruginosa [10],19 mm
same,MIC,Pseudomonas aeruginosa [11],70 µg/mL
same,zone of inhibition at 300 µg/mL,Candida albicans [12],20 mm
same,zone of inhibition at 100 µg/mL,Candida albicans [13],14 mm
same,Activity,Bacillus subtilis [14],100 µg/mL
same,zone of inhibition at 300 µg/mL,Bacillus subtilis [15],14 mm
same,zone of inhibition at 300 µg/mL,Escherichia coli [16],18 mm
same,MIC,Candida albicans [17],20 µg/mL
same,Activity,Pseudomonas aeruginosa [18],70 µg/mL
O=C(O)c1cn(C2CC2)c2cc(N3CCNCC3)c(F)cc2c1=O [CIPROFLOXACIN],MIC,Bacillus subtilis [1],5 µg/mL
same,MIC,Escherichia coli [2],15 µg/mL
same,MIC,Staphylococcus aureus [6],5 µg/mL
same,Activity,Staphylococcus aureus [8],10 µg/mL
same,Activity,Escherichia coli [9],20 µg/mL
same,MIC,Pseudomonas aeruginosa [11],10 µg/mL
same,Activity,Bacillus subtilis [14],5 µg/mL
same,Activity,Pseudomonas aeruginosa [18],10 µg/mL
OC(Cn1cncn1)(Cn1cncn1)c1ccc(F)cc1F [FLUCONAZOLE],Activity,Candida albicans [4],10 µg/mL
same,MIC,Candida albicans [17],5 µg/mL
